Data as given in PubChem BioAssay AID1159585 (Gregory J. Crowther, 2016).

Target: Calcium-dependent protein kinase 1 (Plasmodium falciparum (isolate 3D7)) (UniProt P62344)
Assay: PfCDPK1 kinase inhibitors, biochemical, TCAMS library (AID 1159585);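 note: inhibitors leave more ATP so luminescence rises with inhibition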
Conditions: recombinant PfCDPK1, Kinase-Glo ATP depletion luminescence

Sequence of Calcium-dependent protein kinase 1 (Plasmodium falciparum (isolate 3D7)) (P62344 whole entry, looked up): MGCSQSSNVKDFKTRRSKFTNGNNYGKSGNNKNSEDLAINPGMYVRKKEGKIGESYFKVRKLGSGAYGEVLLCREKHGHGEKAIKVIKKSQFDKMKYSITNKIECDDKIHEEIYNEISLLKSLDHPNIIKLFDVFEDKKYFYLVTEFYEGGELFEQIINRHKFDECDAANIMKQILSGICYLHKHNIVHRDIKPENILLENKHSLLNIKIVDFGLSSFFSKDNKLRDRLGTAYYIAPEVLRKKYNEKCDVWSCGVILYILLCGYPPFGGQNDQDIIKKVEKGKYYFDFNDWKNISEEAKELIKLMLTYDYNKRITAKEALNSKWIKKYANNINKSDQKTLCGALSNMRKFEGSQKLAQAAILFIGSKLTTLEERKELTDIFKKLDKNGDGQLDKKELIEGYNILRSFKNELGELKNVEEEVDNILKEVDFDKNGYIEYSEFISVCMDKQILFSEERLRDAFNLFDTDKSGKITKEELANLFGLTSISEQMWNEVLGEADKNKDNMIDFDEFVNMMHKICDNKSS

SMILES	IC50 [nM]
NCc1ccc(Nc2nccc(Nc3ccc(-c4ccccc4)cc3)n2)cc1	375
CN(C)Cc1cccc(-c2cc3c(-c4cnn(C)c4)c(Cl)cnc3[nH]2)c1	402
NS(=O)(=O)c1cccc(Nc2nc(N[C@@H]3CCNC3)nc3cc[nH]c(=O)c23)c1	83
CC(C)(CNC(=O)C1CCN(Cc2ccc(Cl)cc2)CC1)c1nc(-c2ccc(Cl)c(O)c2)c(-c2ccncc2)[nH]1	347
CN(C)CCNCc1ccc(-c2ccc3c(Nc4ccc(Cl)cc4F)ccnc3c2)o1	374
O=C(NCCN1CCCCC1)c1cccc(Nc2nccc(Nc3ccc(Oc4ccccc4)cc3)n2)c1	250
CS(=O)(=O)CCNCc1cccc(-c2ccc3c(Nc4ccc(Oc5cccnc5)cc4)ccnc3c2)c1	966
NCCCOc1cnc(-c2ccccc2)c2nc(-c3nonc3N)n(CCc3ccccc3)c12	47
Cn1cc(-c2ccnc3[nH]c(-c4cccc(CNC5CCC(O)CC5)c4)cc23)cn1 (centres undefined)	46
CN(C)CCN(C)Cc1ccc(-c2ccc3c(Nc4ccc(Cl)cc4F)ccnc3c2)o1	604
CC(C)(CNCc1ccc(C(F)(F)F)cc1)c1nc(-c2ccc(Cl)c(O)c2)c(-c2ccnc(N)n2)[nH]1	353
CC(C)(CNC(=O)C1CCN(CCOCc2ccccc2)CC1)c1nc(-c2ccc(Cl)c(O)c2)c(-c2ccncc2)[nH]1	734
CCn1c(-c2nonc2N)nc2c(-c3cccc(NC(=O)Nc4ccc5c(c4)CCC5)c3)ncc(OCCCN)c21	85
CCn1c(-c2nonc2N)nc2c(-c3cccc(Cl)c3)ncc(OCCCNCCc3cnc[nH]3)c21	138
CN(C)Cc1ccc(-c2ccc3c(Nc4ccc(Cl)cc4F)ccnc3c2)o1	185
COc1ccc(-c2cnn3ccc(Nc4cc(OC)c(OC)c(OC)c4)nc23)cc1OC	157
CC(C)(CNC(=O)[C@H]1CCCCN1)c1nc(-c2ccc(Cl)c(O)c2)c(-c2ccncc2)[nH]1	164
CCCN1CCN(CCNC(=O)c2cccc(Nc3nccc(Nc4ccc(Oc5ccccc5)cc4)n3)c2)CC1	336
CC(C)(NCc1ncc[nH]1)c1nc(-c2ccc(Cl)c(O)c2)c(-c2ccncc2)[nH]1	144
Cc1cccc2[nH]c(-c3cc(-c4cn[nH]c4)cnc3N)nc12	296
CN1CCC=C(C(=O)NCC(C)(C)c2nc(-c3ccc(Cl)c(O)c3)c(-c3ccncc3)[nH]2)C1	213
Fc1cc(Cl)ccc1Nc1ccnc2cc(-c3ccc(CNCCN4CCOCC4)o3)ccc12	383

SMILES	IC50 [nM]
CC(C)(CNC(=O)[C@H]1CCCN1)c1nc(-c2ccc(Cl)c(O)c2)c(-c2ccncc2)[nH]1	179
COc1ccc(CNCC(C)(C)c2nc(-c3ccc(Cl)c(O)c3)c(-c3ccncc3)[nH]2)cc1	186
COc1ccc(C(=O)NCC(C)(C)c2nc(-c3ccc(Cl)c(O)c3)c(-c3ccncc3)[nH]2)cc1OCCN(C(C)C)C(C)C	387
CN(C)CCOc1ccc(-c2cc(-c3ccc(Cl)c(O)c3)c(-c3ccnc(N)n3)o2)cc1	168
CS(=O)(=O)Nc1cccc(-c2cnc3[nH]cc(-c4ccc(CN)cc4)c3c2)c1	552
CC(C)(CNC(=O)C1CCN(Cc2ccoc2)CC1)c1nc(-c2ccc(Cl)c(O)c2)c(-c2ccncc2)[nH]1	425
CN(C)Cc1ccc(-c2ccc3c(Nc4ccc(Oc5ccccn5)cc4)ccnc3c2)o1	513
CCn1c(-c2nonc2N)nc2c(-c3ccc(CO)o3)ncc(OCCCN)c21	51
Cc1ccc(Nc2nc3cc(N(C)c4ccnc(Nc5cccc(CCS(C)(=O)=O)c5)n4)ccc3n2C)cc1	160
CN1CCN(Cc2ccc(-c3ccc4c(Nc5ccc(Cl)cc5F)ccnc4c3)o2)CC1	406
CS(=O)(=O)CCNCc1cccc(-c2ccc3c(Nc4cc(O)c(Cl)cc4F)ccnc3c2)c1	71
Cc1nc(-c2cccc(Nc3ccnc4cc(-c5nccs5)ccc34)c2)no1	191
Oc1cc(-c2nc(-c3ccccc3)[nH]c2-c2ccncc2)ccc1Cl	975
O=C(Nc1cccc(-c2nn3ccccc3c2-c2ccnc(Nc3ccc(NCCCN4CCOCC4)c(F)c3)n2)c1)c1c(F)cccc1F	38
CNC(=O)c1ccccc1Nc1nc(Nc2ccc(CCN3CCN(C)CC3)cc2)ncc1Cl	47
CN(C)CCOc1ccc(-c2cc(-c3ccnc(N)n3)c(-c3ccc(Cl)c(O)c3)o2)cc1	684
Clc1ccc(-c2cnc3ccc(NCCc4cccnc4)nn23)cc1	371
O=C(Nc1cccc(-c2nn3ccccc3c2-c2ccnc(Nc3ccc(-c4ccn[nH]4)cc3)n2)c1)c1c(F)cccc1F	22
Cn1c(Nc2cc(C(C)(C)C)on2)nc2cc(Nc3ccnc(Nc4cccc(CS(C)(=O)=O)c4)n3)ccc21	114
Cc1cccc(Nc2nc(NCCCCN)nc3cc[nH]c(=O)c23)c1	566
CCN(CC)CCCOc1ccc(Nc2nccc(-c3c(-c4cccc(NC(=O)c5c(F)cccc5F)c4)nn4ccccc34)n2)cc1F	429
CCn1c(-c2nonc2N)nc2c(-c3ccccc3)ncc(OCCCCNCCc3ncc[nH]3)c21	94
